According to the supplement of paper PMC6723410:

test system: GUMC-403; assay: viability at highest tested concentration (max response) relative to DMSO (% of DMSO control); higher = less cytotoxic; details: library / dose series: MIPE library, 11-point 1:3 dilution; top concentration 46.1 µM; 48 h
Summary of the method: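 Viability at the highest tested concentration is given relative to vehicle control. For this, conditionally reprogrammed patient-derived GUMC-403 papilloma cells at 700/well in 1536-well plates were exposed to 23 nL of pinned compound for 48 h. Luminescence from CellTiter-Glo was read on a ViewLux and scaled between empty wells (0%) and vehicle wells (100%).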

Compound	viability
CCOC(=O)\C1=C\[C@@H](OC(CC)CC)[C@H](NC(C)=O)[C@@H](N)C1	123
O=C(CCCCCCC(=O)Nc1ccc([C@H]2O[C@@H](CSc3nc(-c4ccccc4)c(-c4ccccc4)o3)C[C@@H](c3ccc(CO)cc3)O2)cc1)NO	115
COc1cc([C@H]2Oc3cc([C@H]4Oc5cc(O)cc(O)c5C(=O)[C@@H]4O)ccc3O[C@@H]2CO)ccc1O	83.9
O=C(O)CCCc1c[nH]c2ccccc12	107
O=C(CS(=O)Cc1ccco1)NC/C=C\COc1cc(CN2CCCCC2)ccn1 (stereo unspecified)	128
CCOCC(O)COc1ccc(NC(=O)CC[S+](C)C)cc1 (stereo unspecified)	111
CCC[S+](=O)([O-])Nc1ccc(F)c(C(=O)c2c[nH]c3ncc(Cl)cc23)c1F	79.1
CN1CCN(c2ncc(-c3cc(Cl)cc(Cl)c3Cl)c(N)n2)CC1	119
O=c1[nH]c(=O)n([C@H]2C[C@H](O)[C@@H](CO)O2)cc1/C=C/Br	116
COC(=O)C[C@](O)(CCCC(C)(C)O)C(=O)O[C@@H]1C(OC)=CC23CCCN2CCc2cc4c(cc2[C@H]13)OCO4 (stereo partly specified)	140
O=C(NOCC(O)CO)c1cc(Br)c(F)c(F)c1Nc1ccc(I)cc1F (stereo unspecified)	62.8
Cc1cccc(N(C)C(=S)Oc2ccc3ccccc3c2)c1	139
NC[C@@H]1O[C@H](O[C@H]2[C@@H](O)[C@H](O[C@@H]3[C@@H](O)[C@H](N)C[C@H](N)[C@H]3O[C@H]3O[C@H](CN)[C@@H](O)[C@H](O)[C@H]3N)O[C@@H]2CO)[C@H](N)[C@@H](O)[C@@H]1O.O=S(=O)(O)O.O=S(=O)(O)O.O=S(=O)(O)O	119
OCc1ccc(-c2ccc(-c3ccc(CO)s3)o2)s1	117
CCC(=O)NC[C@H](Cc1ccc(OCCc2nc(-c3ccccc3)oc2C)cc1)N/C(C)=C\C(=O)c1ccc(C(F)(F)F)cc1	109
c1ccc2c(Cc3c[nH]c4ccccc34)c[nH]c2c1	75.9
CC(C)NCC(O)COc1ccc(CCOCC2CC2)cc1 (stereo unspecified)	117
COc1cc2c(Nc3ccc(Cl)c(Cl)c3F)ncnc2cc1OCC1C[C@@H]2CN(C)C[C@@H]2C1 (stereo partly specified)	12.5
COc1ccc2c(c1)[C@]13CCCCC1C(C2)N(C)CC3 (stereo partly specified)	102
Cn1c(=O)c2c(ncn2CC(O)CO)n(C)c1=O (stereo unspecified)	138
Fc1ccc(CNc2ncnc3ccc(F)cc23)cc1	80.4
Clc1ccccc1C(c1ccccc1)(c1ccccc1)n1ccnc1	99.5

Compound	viability
CN1C2CCC1CC(OC(=O)C(CO)c1ccccc1)C2 (stereo unspecified)	109
NCC/1=C/NC(=S)N1[C@H]2CCC3=C(F)C=C(F)C=C3C2	95.9
CC(=O)SC[C@@H](C)C(=O)N1CCC[C@H]1C(=O)N[C@@H](Cc1ccccc1)C(=O)O	135
COc1cc(NC(=O)c2ccc(-c3ccc(Cl)cc3)o2)cc(OC)c1	39.9
NC(=O)c1c(OCc2c(F)cc(Br)cc2F)nsc1NC(=O)NCCCCN1CCCC1	101
O=C(CCCN1CCN(c2ccc(F)cc2)CC1)NC1c2ccccc2CSc2ccccc21 (stereo unspecified)	93.5
Cc1onc(-c2ccccc2)c1C(=O)N[C@@H]1C(=O)N2[C@@H]1SC(C)(C)[C@@H]2C(=O)[O-].[Na+]	109
C[C@H](NC(=O)Cc1cc(F)cc(F)c1)C(=O)N[C@H](C(=O)OC(C)(C)C)c1ccccc1	79.4
CCNC(=O)C[C@@H]1\N=C(C2=CC=C(Cl)C=C2)/C3=C(C=CC(=C3)OC)[N]4C(=NN=C14)C	79.8
CCc1ccc(CCOc2ccc(CC3SC(=O)NC3=O)cc2)nc1 (stereo unspecified)	103
N[S+](=O)([O-])c1cc(Cl)c(Cl)c([S+](N)(=O)[O-])c1	109
Cc1[nH]c(/C=C2\C(=O)Nc3ccc([S+](=O)([O-])Cc4c(Cl)cccc4Cl)cc32)c(C)c1C(=O)N1CCC[C@@H]1CN1CCCC1	113
CCC1(c2ccccc2)C(=O)NCNC1=O	105
N[C@@H](Cc1ccc(N(CCCl)CCCl)cc1)C(=O)O	143
O=C(O)c1nn(Cc2ccc(Cl)cc2Cl)c2ccccc12	99.7
CC(C)[C@H]1C(=O)N[C@H](CO)Cc2c[nH]c3cccc(c23)N1C	107
Cc1cccc(-c2[nH]c(C(C)(C)C)nc2-c2ccc3nccnc3c2)n1	140
CC1=CC(=CC(=C1C\C2=N\CCN2)C)C(C)(C)C	130
COc1ccc2cc([C@H](C)C(=O)O)ccc2c1	97.3
Cn1cc(/C=C2\C(=O)Nc3cccnc32)c2ccccc21	132
O=C(O)C1=NC(C(=O)O)CC(/C=C/N2c3cc(O)c(OC4OC(CO)C(O)C(O)C4O)cc3CC2C(=O)O)=C1 (stereo unspecified)	135
COC[C@H](c1ccc(C(F)(F)F)cc1)N1CCN(C2(C)CCN(C(=O)c3c(C)ncnc3C)CC2)C[C@H]1C.O=C(O)/C=C\C(=O)O	57.9

Compound	viability
CC(C)(C)OC(=O)CN(Cc1ccc(Cl)cc1)Cc1ccc([N+](=O)[O-])s1	97.7
Nc1n[nH]c2nnc(-c3c(-c4ccccc4)nn4ccccc34)cc12	88.7
COc1ccnc(C[S+]([O-])c2nc3cc(OC(F)F)ccc3[nH]2)c1OC (stereo unspecified)	98.7
Cc1coc2c1C(=O)C(=O)c1c-2ccc2c1CCCC2(C)C	113
O=C(O)[C@@H](c1ccc(OCc2ccc3ccccc3n2)cc1)C1CCCC1	108
COc1ccc(CC2SC(=O)NC2=O)cc1C(=O)NCc1ccc(C(F)(F)F)cc1 (stereo unspecified)	95.6
NC(=O)Nc1sc(-c2ccc(F)cc2)cc1C(N)=O	51.7
NC1=NC(=O)N2CC12 (stereo unspecified)	138
C[C@]12CC[C@@H]3c4ccc(O)cc4C[C@@H](CCCCCCCCC[S+]([O-])CCCC(F)(F)C(F)(F)F)[C@H]3[C@@H]1CC[C@@H]2O (stereo partly specified)	114
c1cc(-c2cnn3cc(-c4ccc(OCCN5CCCCC5)cc4)cnc23)ccn1	48.4
CCn1cc(-c2ccnc3[nH]c(-c4cccc(CN(C)C)c4)cc23)c(-c2ccc(NC(=O)N(C)C)cc2)n1	54.6
CC(=O)OCCN1C(=O)c2c(C)nc3ccc([S+](=O)([O-])N4CCOCC4)cc3c2C1=O	123
OC(=O)C/1=C/C(=O)NC(=O)N1	122
C[C@@]1(C(=O)Nc2ccc(F)nc2)CCCN1c1nc(Nc2cc(C3CC3)[nH]n2)c2cccn2n1	63.1
CCCCCCCCCCCC(CC1OC(=O)C1CCCCCC)OC(=O)C(CC(C)C)NC=O (stereo unspecified)	101
C=CC(=O)N1CCC[C@@H](n2nc(-c3ccc(Oc4ccccc4)cc3)c3c(N)ncnc32)C1	83.3
O=C(O)c1cc(/N=N/c2ccc([S+](=O)([O-])Nc3ccccn3)cc2)ccc1O	121
CC1(C)CC(=O)c2c(C(F)(F)F)nn(-c3ccc(C(N)=O)c(NC4CCC(OC(=O)CN)CC4)c3)c2C1 (stereo unspecified)	84.3
O=C(CCCCCCNC(=O)c1cnc(N(c2ccccc2)c2ccccc2)nc1)NO	117
CC[C@@H]1C(=O)N(C)c2cnc(Nc3ccc(C(=O)NC4CCN(C)CC4)cc3OC)nc2N1C1CCCC1	41.8
c1ccc(CCCN2CCN(CCOC(c3ccccc3)c3ccccc3)CC2)cc1	88.7
CNC(=O)c1cc(COc2nnc(Nc3ccc(Cl)cc3)c3ccoc23)ccn1	113

Compound	viability
CC12CC3CC(C)(C1)CC(N)(C3)C2	117
CC(C)NCC(O)COc1ccc(COCCOC(C)C)cc1 (stereo unspecified)	117
CCN(CC)CCOc1ccc(Cc2ccccc2)cc1	101
O=C1CCC[C@@H]2[C@H]3CCC[N+]4([O-])CCC[C@@H](CN12)[C@@H]34 (stereo partly specified)	106
Oc1ccc(OCc2ccccc2)cc1	110
N/C1=N/C(=O)C/2=C(NC[C@@H](CNC3=CC=C(C=C3)C(=O)N[C@@H](CCC([O-])=O)C([O-])=O)N2C=O)\N1	132
COc1c(O)cc2c(c1O)[C@@H]1O[C@H](CO)[C@@H](O)[C@H](O)[C@H]1OC2=O	110
NC(=O)c1ncn([C@@H]2O[C@H](CO)[C@@H](O)[C@H]2O)c1N	118
CC(C)[C@H](N)C(=O)OCCOC[N]1C=NC2=C1\N=C(N)/NC2=O	107
NC(=O)NO	51.9
CN(C)CC(=O)N1CCC(CC1)C2=CC=C(NC(=O)C3=NC(=C[NH]3)C#N)C(=C2)\C4=C\CCCC4	129
Cc1c(OCC(F)(F)F)ccnc1C[S+]([O-])c1nc2ccccc2[nH]1 (stereo unspecified)	82.7
OC1=CC=C(C=C1)\C2=C\C(=O)C3=C(O2)C=C(O)C=C3O	138
CC#CCn1c(N2CCC[C@@H](N)C2)nc2c1c(=O)n(Cc1nc(C)c3ccccc3n1)c(=O)n2C	111
C=CC[N+]1([C@H]2C[C@H]3[C@@H]4CC[C@H]5C[C@H](O)[C@@H](N6CCOCC6)C[C@]5(C)[C@H]4CC[C@]3(C)[C@H]2OC(C)=O)CCCC1	108
Cc1[nH]c(/C=C2\C(=O)Nc3ccc([S+](=O)([O-])N(C)c4cccc(Cl)c4)cc32)c(C)c1C(=O)N1CCN(C)CC1	138
N[C@@H](Cc1ccc(O)c(O)c1)C(=O)O	133
COc1cccc2c1CCCC2CCCN1CCN(C2CCCCC2)CC1 (stereo unspecified)	112
Cc1cc(O)c2c3c4c(cc(O)c13)C(C)(C)C(=O)c1c(O)cc(O)c(c1-4)C2=O	104

same assay, conditions: library / dose series: MIPE library, 11-point 1:3 dilution; top concentration 92.2 µM; 48 h

Compound	viability
CC(C)(C)c1[nH]cnc1/C=c1\[nH]c(=O)/c(=C/c2ccccc2)[nH]c1=O	95.3
